≈ marks a conversion by molar mass, not a printed value. Read-outs that look alike come from different tables or passages of the source.
How the values were obtained:
Assay type in all cases: physicochemical
[1] = Competitive slurries of (Z)-endoxifen polymorphs (XRPD); details: slurries of Forms I, IV and VII in various solvents, 3 days at room temperature or 24 hours at high temperature
Description: This example covers conversions of (Z)-endoxifen polymorphs in solvent slurries. Slurries of Forms I and VII were generated with Forms I, IV, and VII in various solvents, and incubated for either 3 days at room temperature or for 24 hours at high temperature. Following these incubations, polymorphs were collected from the slurries and characterized by XRPD.

[2] = Slurries of (Z)-endoxifen in solvent mixtures (XRPD); details: for Output Crystallinity [high/low/SC/oriented]: 50° C., 1 d
Description: Slurry experiments were performed with solvents with 50° C. (Z)-endoxifen was suspended in 500 μl of the solvent mixture to achieve the concentrations of 40 mg/ml or 100 mg/ml. The resultant solutions were stored at 50° C. for one day. For solvent mixtures which included acetone, the slurry was instead stored at 40° C. The suspensions were then recovered and filtered with a nylon filter (0.22 μm) during centrifugation at 4000 rpm for 3 minutes, and the collected solid (Z)-endoxifen was analyzed by XRPD as shown in FIG. 85-FIG. 91 and FIG. 1-FIG. 5.

[3] = Solvent mixture solubility tests of (Z)-endoxifen; details: for solubility / Solubility HT (40 mg/mL): Sol. HT: high temperature
Description: To test the solubility of (Z)-endoxifen in varying conditions, 10 mg of (Z)-endoxifen was added to a stoppered tube, and 0.01 ml of the selected solvent was added (1000 mg/ml solution). The tube was shaken vigorously for 1 minute and then incubated at a constant temperature of 25.0° C. for 15 minutes. If the solid was not completed dissolved, the tube was shaken again and placed at the constant temperature of 25.0° C. for another 15 minutes. If the solid was completely dissolved at this step, it was considered to be very soluble in the selected solvent system. If the solid was not dissolved by this step, another 0.09 ml was added (yielding a 100 mg/ml solution) and an attempt to further dissolve the solid was made by the same steps of shaking and incubating twice over as described previously. If the solid was completely dissolved at this step, it was considered freely soluble. If the solid was not dissolved by this step another 0.2 ml was added (yielding a 33.3 mg/ml solution) and an attempt to further dissolve the solid was made by the same steps of shaking and incubating twice over as described previously. If the solid was completely dissolved at this step, it was considered soluble. If the solid was not dissolved by this step another, 0.7 ml was added (yielding a 10 mg/ml solution) and an attempt to further dissolve the solid was made by the same steps of shaking and incubating twice over as described previously. If the solid was completely dissolved at this step, it was considered sparingly soluble. If the solid was not dissolved by this step the sample was considered to be slightly soluble or very slightly soluble and the solution was heated until the boiling point of the solvent system (max 100° C.) under stirring with a rate of 0.5° C. per minute temperature ramp rate to verify the solubility at high temperatures. The hot solution was after cooled to room temperature with a cooling rate of 0.5° C. per minute to verify if the sample had precipitated after up to 18 hours under magnetic stirring. The same procedure was also used for the solvent mixture solubility tests. The concentrations investigated for the solvent mixture stability were 40 mg/ml and 100 mg/ml. Some solutions in the following example were precipitated by cooling of the solution from a temperature between 50-100° C. to between 10-25° C. at a rate ranging from −0.2 to −0.5° C./minute resulting in a precipitate.

[4] = 2-propanol/tetrahydrofuran 95/5 v/v, 40 mg/mL
[5] = acetone/2-propanol 67/33 v/v, 40 mg/mL
[6] = acetone/tetrahydrofuran 95/5 v/v, 40 mg/mL
[7] = butyl methyl ether/methanol 50/50 v/v, 40 mg/mL

## CC/C(=C(\c1ccc(O)cc1)c1ccc(OCCNC)cc1)c1ccccc1 [(Z)-endoxifen, (Z)-4-(1-(4-(2-(methylamino)ethoxy)phenyl)-2-phenylbut-1-enyl)phenol]
[1]
  Polymorphic form recovered (XRPD): majority of slurries yielded high purity Form I, some of the slurries yielded Form I with traces of Form IV or Form VII, and six slurries yielded primarily Form IV
[2]; SLHT-1D-H2O/THF(40 mg/ml), FIG. 3: water/tetrahydrofuran 95/5, 40 mg/mL
  Output Crystallinity [high/low/SC/oriented]: low
[2]; SLHT-1D-HEP/TOL(100 mg/ml), FIG. 89: heptane/toluene 50/50, 100 mg/mL
  Output Crystallinity [high/low/SC/oriented]: low
[2]; all solvent mixture slurries, 40 or 100 mg/ml, 50° C. (40° C. with acetone), one day
  Polymorphic form recovered (XRPD): Form I with varying degrees of purity
[3]; 2-propanol/THF (95/5 v/v), organic solvent or mixture, thermodynamic from solid, 2-propanol/THF (95/5 v/v), precipitated during cooling, read-out: Solubility
  solubility: 40 mg/mL (≈ 107 mM)
[3]; 2-propanol/tetrahydrofuran 95/5 v/v, organic solvent or mixture, thermodynamic from solid, 2-propanol/tetrahydrofuran 95/5 v/v, 100 mg/mL, read-out: Solubility HT (100 mg/mL): Sol. HT
  solubility: < 100 mg/mL
[3]; [4]
  Solubility HT (40 mg/mL): Clear point: 52.8 °C
  Solubility HT (40 mg/mL): Cloudy point: 28.6 °C
  Solubility HT (40 mg/mL): Sol. HT: YES
[3]; 2-propanol/tetrahydrofuran 95/5 v/v, 40 mg/mL, on cooling
  Solubility HT (40 mg/mL): Re-PPT: YES
[3]; acetone/2-propanol 67/33 v/v, organic solvent or mixture, thermodynamic from solid, acetone/2-propanol 67/33 v/v, 100 mg/mL, read-out: Solubility HT (100 mg/mL): Sol. HT
  solubility: < 100 mg/mL
[3]; [5]
  Solubility HT (40 mg/mL): Clear point: 36.8 °C
  Solubility HT (40 mg/mL): Re-PPT after 18 hours at −20° C.: YES
  Solubility HT (40 mg/mL): Sol. HT: YES
[3]; acetone/2-propanol (63/37 v/v), precipitated after 18 hours at −20° C.
  solubility: soluble
[3]; acetone/THF (95/5 v/v), precipitated after 18 hours at −20° C.
  solubility: soluble
[3]; acetone/acetonitrile 50/50 v/v, organic solvent or mixture, thermodynamic from solid, acetone/acetonitrile 50/50 v/v, 40 mg/mL, read-out: Solubility HT (40 mg/mL): Sol. HT
  solubility: < 40 mg/mL
[3]; acetone/acetonitrile 50/50 v/v, organic solvent or mixture, thermodynamic from solid, acetone/acetonitrile 50/50 v/v, 100 mg/mL, read-out: Solubility HT (100 mg/mL): Sol. HT
  solubility: < 100 mg/mL
[3]; acetone/acetonitrile (50/50 v/v), organic solvent or mixture, thermodynamic from solid, acetone/acetonitrile (50/50 v/v), read-out: Solubility
  solubility: < 40 mg/mL
[3]; acetone/ethyl acetate 50/50 v/v, organic solvent or mixture, thermodynamic from solid, acetone/ethyl acetate 50/50 v/v, 40 mg/mL, read-out: Solubility HT (40 mg/mL): Sol. HT
  solubility: < 40 mg/mL
[3]; acetone/ethyl acetate 50/50 v/v, organic solvent or mixture, thermodynamic from solid, acetone/ethyl acetate 50/50 v/v, 100 mg/mL, read-out: Solubility HT (100 mg/mL): Sol. HT
  solubility: < 100 mg/mL
[3]; acetone/ethyl acetate (50/50 v/v), organic solvent or mixture, thermodynamic from solid, acetone/ethyl acetate (50/50 v/v), read-out: Solubility
  solubility: < 40 mg/mL
[3]; acetone/tetrahydrofuran 95/5 v/v, organic solvent or mixture, thermodynamic from solid, acetone/tetrahydrofuran 95/5 v/v, 100 mg/mL, read-out: Solubility HT (100 mg/mL): Sol. HT
  solubility: < 100 mg/mL
[3]; [6]
  Solubility HT (40 mg/mL): Clear point: 47.5 °C
  Solubility HT (40 mg/mL): Re-PPT after 18 hours at −20° C.: YES
  Solubility HT (40 mg/mL): Sol. HT: YES
[3]; butyl ethyl ether/methanol (50/50 v/v), organic solvent or mixture, thermodynamic from solid, butyl ethyl ether/methanol (50/50 v/v), read-out: Solubility
  solubility: 40 to 100 mg/mL (≈ 107 to 268 mM)
[3]; butyl methyl ether/methanol 50/50 v/v, organic solvent or mixture, thermodynamic from solid, butyl methyl ether/methanol 50/50 v/v, 100 mg/mL, read-out: Solubility HT (100 mg/mL): Sol. HT
  solubility: < 100 mg/mL
[3]; [7]
  Solubility HT (40 mg/mL): Clear point: 31.8 °C
  Solubility HT (40 mg/mL): Sol. HT: YES
[3]; ethyl acetate/2-propanol 50/50 v/v, 100 mg/mL
  Solubility HT (100 mg/mL): Clear point: 59.8 °C
